Source: US6579541B2, “Oxidative fluorinator compounds as antimicrobials” (priority 2000, dated 2003)

How the values were obtained:
bacterial colonies = experiment: Industrial cooling tower water, standard immersion test kit; conditions: about 1 ppm CoF3 with about 10 ppm KPS, about 1,000 gallons of water, after 24 hours
Source text: An industrial cooling tower containing about 1,000 gallons of water tested positive for a high bacterial colony count using a standard immersion test kit.

salmonella = experiment: AOAC culture test of aqueous solutions with salmonella contamination; format: cell-based; conditions: ten minutes exposure
Protocol: Unless otherwise indicated, antimicrobial evaluations of the various fluorinator compounds tested were performed versus control samples in cultures in accordance with the protocol as set forth in AOAC (15th) 1990:965:13 at colony densities indicated in the examples.
Aqueous solutions were prepared having a salmonella contamination at a cell density of about 500,000 cfu/mL. Two solutions of XeF2 were prepared: one as a 1% solution in 85% phosphoric acid stabilizer, and a second solution containing no stabilizer. The materials were cultured versus controls at concentrations of about 2 ppm and about 4 ppm XeF2 and at a pH of about 9.

E. Coli ATCC 81377 = experiment: Hand soap base culture test; format: cell-based; conditions: about 5 ppm XeF2 in hand soap base, about 320,000 cfu/mL, 30 seconds exposure
Protocol: (§1) These and other aspects of the present invention may be more fully understood with reference to the following examples, which are merely illustrative of the preferred embodiments of the present invention, and are not to be construed as limiting the invention, the scope of which is defined by the appended claims. Unless otherwise indicated, antimicrobial evaluations of the various fluorinator compounds tested were performed versus control samples in cultures in accordance with the protocol as set forth in AOAC (15th) 1990:965:13 at colony densities indicated in the examples.
(§2) A hand soap base was prepared comprising an aqueous mixture of coconut fatty acid amide and sodium lauryl sulfate surfactants. XeF2 was incorporated into the hand soap base at a level of about 5 ppm and four separate cultures containing various microbes at a level of about 320,000 cfu/mL were evaluated.

Salmonella ATC 14 = experiment: Hand soap base culture test; format: cell-based; conditions: about 5 ppm XeF2 in hand soap base, about 320,000 cfu/mL, 30 seconds exposure
Protocol: as §1, §2

[1] = system: Staph Aureus (Methicillin resistance); experiment: Hand soap base culture test; format: cell-based; conditions: about 5 ppm XeF2 in hand soap base, about 320,000 cfu/mL, 30 seconds exposure
Protocol: as §1, §2

[2] = system: Enterococcus Faecalis (Vancomycin resistance); experiment: Hand soap base culture test; format: cell-based; conditions: about 5 ppm XeF2 in hand soap base, about 320,000 cfu/mL, 30 seconds exposure
Protocol: as §1, §2

coliform = experiment: AOAC culture test of contaminated water, coliform counts; format: cell-based; conditions: about 2 PPM XeF2 with about 20 PPM KPS, pH about 7, 37.4 cfu/mL
Protocol: as §1
Contaminated water was prepared and measured to have AOAC coliform counts averaging 37.4 colony forming units per milliliter (cfu/mL). The water was treated by first adding crystal potassium monopersulfate (KPS) stabilizer, commercially available from E.I. DuPont de Nemours & Co. Corp. as OXONE®, and xenon difluoride (XeF2). The concentration in solution of the KPS and XeF2 was about 20 PPM and about 2 PPM respectively, and the pH of the treated solution was about 7.

Compound | immersion kit test result on cooling tower water (bacterial colonies) | inhibition (salmonella; about 2 ppm XeF2, pH about 9, about 500,000 cfu/mL) | inhibition (salmonella; about 4 ppm XeF2, pH about 9, about 500,000 cfu/mL) | Inhibition (%) (E. Coli ATCC 81377) | Inhibition (%) (Salmonella ATC 14) | Inhibition (%) [1] [%] | Inhibition (%) [2] [%] | coliform inhibited (coliform; 5 minutes exposure) | coliform inhibited (coliform; 10 minutes exposure)
[F][Co]([F])[F] [CoF3, cobalt trifluoride] | complete destruction of bacterial colonies | – | – | – | – | – | – | – | –
F[Xe]F [XeF2, xenon difluoride] | – | about 13.2% | about 96.4% | 99.9 | 99.9 | 99.5 | 99.9 | about 73% | about 77%
